The text below walks through data of patent publication US20150285805A1, “BIOMARKERS OF MULTIPLE MYELOMA DEVELOPMENT AND PROGRESSION” (priority 2012, published 2015).

Assay [1] concerns microvascular endothelial cell. Particulars: in vitro; cited from earlier work.
The conditions of assay [2]: cited from earlier work.
The test system of the next assay is T cells. Particulars: cited from earlier work.
The next assay concerns MM cells. Particulars: phosphocholine administration; cited from earlier work.
In the next assay the test system is MM.1S myeloma cell line. Kind of assay: AnnexinV-PI cytometry, apoptosis/viability upon LPC supplementation. As to conditions: 10 μM LPC, 24 h, vs vehicle. It counts as cell-based. As for the experimental part:
(§1) FIG. 5. Effects of LPC supplementation on MM cells viability. A) Viability of myeloma cell lines MM.1S or OPM2 or three samples of myeloma patient-derived CD138 positive cells upon 24 h incubation with vehicle or 10 μM LPC, as fold change of annexinV-propidium iodide double negative cells relative to vehicle alone. B) MTT assay of OPM2 cells upon 72 h supplementation with LPC, one representative experiment (n=6). Y axis: median 570-655 optic density (O.D.); error bars: standard deviation; asterisks: p<0.05 at two-tailed t-test for paired samples.
(§2) Myeloma cell lines (OPM2 and MM.1S) were cultured in RPMI1640 media (Gibco), supplemented with glutamax (1 mM), penicillin (100 U/ml), and streptomycin (100 μg/ml). Primary MM cells were obtained by CD138 positive immunomagnetic selection (Miltenyi) from bone marrow mononuclear cells. CD138^+ cells were cultured in 10% FBS and IL-6 (2 ng/ml). Apoptosis was detected by AnnexinV-PI (BD) cytometry (AccuriC6 cytometer, analyzed with FCS-express). For MTT assays, OPM2 cells were cultured with or without 10 μM LPC and FCS, incubated with 5 mg/ml MTT (Sigma), dissolved with DMSO and measured for ABS at 570-655 nm with an ELISA reader (Biorad).

A further assay deals with OPM2 myeloma cell line. The description is as above. It counts as cell-based. Particulars: 10 μM LPC, 24 h, vs vehicle. On the procedure:
as §1, §2

The subject of assay [3] is myeloma patient-derived CD138 positive cells. The assay is described as above. As to conditions: 10 μM LPC, 24 h, vs vehicle; three patient samples. It counts as cell-based. As for the experimental part: as §1, §2
The subject of another assay is OPM2 cells. Kind of assay: MTT assay upon LPC supplementation. It counts as cell-based. As to conditions: 10 μM LPC, 72 h, with or without FCS; particularly upon serum starvation. On the procedure: as §1, §2
On the technique in general: Tetrazolium assays rely on reduction of a dye to a coloured formazan, in cell work by metabolically active cells.

“C3f: fragment of the C3 complement factor, sequence SSKITHRIHWESASLLR; detected fragment HWESASLL (listed as Homo sapiens)”: in assay [1], the “IGF1 signaling and microvascular endothelial cell proliferation” value is listed as “actively modulate”; the “TGFβ-1 secretion by endothelial cells” value was “enhance TGFβ-1 secretion”.
`CNCC(=O)O` [Sarcosine, Sarcosine (N-Methylglycine)]: the “cancer-promoting in vitro activities” value in assay [2] is “induction of migration, invasiveness, and up-regulation of pathogenic receptors”.
Consider `Nc1c(O)cccc1C(=O)CC(N)C(=O)O` (stereo not shown) [3-hydroxykynurenine], for which the T cell depletion entry in the assay with T cells (in vitro and in vivo, transplanted mice) was “depleting in vitro and in vivo T cells”. Moreover, the mismatched allograft tolerance result in the assay on T cells (mouse, in vivo) is on record as “promoting mismatched allograft tolerance”.
For the compound `C[N+](C)(C)CCOP(=O)([O-])O` [phosphocholine], in the assay on MM cells, the “rescue of MM cells from the mevalonate pathway inhibitor apomine” value was “can rescue MM cells”.
For lysophosphocholines [LPC], the “apoptosis (annexinV-propidium iodide)” value (in the assay on MM.1S myeloma cell line; in the assay on OPM2 myeloma cell line; in assay [3]) was “decrease apoptosis” throughout. For the same compound, in the assay with OPM2 cells, the “viability (MTT, 570-655 O.D.)” value is reported as “increase viability”.
